Values quoted from earlier work, collected in patent US7125702B2, “Process for the preparation of angiotensis converting enzyme (ACE) inhibitors and its use” (Council of Scientific and Industrial Research, priority 2003, dated 2006).

How the values were obtained:
[1] = molecular target: angiotensin I-converting enzyme (Homo sapiens, UniProt P12821); details: read-out: IC50 (ACE inhibition)
[2] = molecular target: angiotensin-converting enzyme (Homo sapiens, UniProt P12821); details: read-out: IC50 (ACE inhibition)
[3] = system: spontaneously hypertensive rats; details: 30 mg/kg intravenous injection

Chain of angiotensin-converting enzyme (P12821 30-1306): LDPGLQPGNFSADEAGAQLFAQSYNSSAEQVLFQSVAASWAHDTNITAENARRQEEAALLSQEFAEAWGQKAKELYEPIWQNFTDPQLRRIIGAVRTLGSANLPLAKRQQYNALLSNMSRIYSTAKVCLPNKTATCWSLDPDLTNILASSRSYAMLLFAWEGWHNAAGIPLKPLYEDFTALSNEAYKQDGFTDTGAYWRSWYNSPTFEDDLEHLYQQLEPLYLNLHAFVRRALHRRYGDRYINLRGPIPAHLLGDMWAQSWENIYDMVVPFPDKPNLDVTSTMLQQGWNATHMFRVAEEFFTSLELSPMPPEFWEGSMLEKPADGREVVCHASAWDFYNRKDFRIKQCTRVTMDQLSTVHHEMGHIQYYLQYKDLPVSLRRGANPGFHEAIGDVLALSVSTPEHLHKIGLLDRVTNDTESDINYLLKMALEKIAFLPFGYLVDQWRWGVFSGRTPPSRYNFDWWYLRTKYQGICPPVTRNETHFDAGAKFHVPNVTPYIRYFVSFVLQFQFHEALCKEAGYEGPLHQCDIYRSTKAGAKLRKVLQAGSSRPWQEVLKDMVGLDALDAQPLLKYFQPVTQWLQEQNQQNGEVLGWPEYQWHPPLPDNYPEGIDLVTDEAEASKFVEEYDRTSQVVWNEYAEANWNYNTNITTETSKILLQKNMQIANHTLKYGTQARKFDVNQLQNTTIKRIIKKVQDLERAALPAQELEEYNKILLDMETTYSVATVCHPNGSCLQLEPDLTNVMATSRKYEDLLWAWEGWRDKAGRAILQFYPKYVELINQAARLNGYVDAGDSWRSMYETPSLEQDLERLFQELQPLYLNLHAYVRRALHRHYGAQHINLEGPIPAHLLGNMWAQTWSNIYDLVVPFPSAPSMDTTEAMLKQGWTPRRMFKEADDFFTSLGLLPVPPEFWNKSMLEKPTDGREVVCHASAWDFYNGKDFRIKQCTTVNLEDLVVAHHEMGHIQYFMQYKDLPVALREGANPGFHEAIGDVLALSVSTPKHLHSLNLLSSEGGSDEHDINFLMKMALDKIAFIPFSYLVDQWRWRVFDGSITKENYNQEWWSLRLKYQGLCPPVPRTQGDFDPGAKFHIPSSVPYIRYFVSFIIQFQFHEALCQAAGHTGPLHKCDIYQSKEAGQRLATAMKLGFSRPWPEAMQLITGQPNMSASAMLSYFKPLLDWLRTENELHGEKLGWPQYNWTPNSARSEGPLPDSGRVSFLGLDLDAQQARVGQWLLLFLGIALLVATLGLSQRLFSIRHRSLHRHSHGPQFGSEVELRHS
Chain of angiotensin I-converting enzyme (P12821 30-1306): as above

Row | IC50 [1] [µM] | IC50 [2] [µM] | Substance | other results
1 | 4.8 |  | Ap-Leu-Pro | 
2 |  | 1.7 | Leu-Ser-Pro [tripeptide from thermolysin hydrolysate of α-zein] | 
3 | 12.3 |  | Asp-Gly | 
4 |  | 1.9 | Leu-Asn-Pro [tripeptide from thermolysin hydrolysate of α-zein] | 
5 |  |  | His-His-Leu | pressure in the aorta (blood pressure; synthetic peptide): significant pressure decrease; systolic blood pressure decrease (blood pressure; triple injections of the peptide): 61 mm Hg
6 |  | 0.27 | Leu-Arg-Pro [tripeptide from thermolysin hydrolysate of α-zein] | blood pressure decrease [3]: 15 mm Hg
